Experimental data published in patent US20250325501A1, “A SPHINGOSINE-1-PHOSPHATE RECEPTOR (S1PR) MODULATOR FOR USE IN TREATING A PATIENT SUFFERING FROM ALZHEIMER'S DEMENTIA” (Otto-von-Guericke-Universitaet Magdeburg, priority 2022, published 2025).

Columns and labels:
[1] = tested on: APP/PS1 Alzheimer's disease (AD) mouse model; assay: Dendritic spine density analysis (Golgi-Cox staining) in APP/PS1 AD mice; format: in vivo; conditions: for spine deficits in CA3 pyramidal neurons and dentate gyrus granule cells: 15-month-old male AD mice
[2] = tested on: APP/PS1 Alzheimer's disease (AD) mouse model; assay: Contextual fear learning in AD mice; format: in vivo; conditions: 15-month-old male AD mice; 3.0 mg/kg/2nd day for 1 month; FIG. 3
Description: The therapeutic effect of fingolimod (FTY720) as an example for an S1PR modulator for use in the treatment of Alzheimer's disease was tested in an established double transgenic amyloid precursor protein/presenilin-1 (APP/PS1) Alzheimer's disease (AD) mouse model that starts to develop amyloid-β (Aβ) pathology in the neocortex and hippocampus at two and four months of age, respectively. This AD mouse model is particularly close to human AD pathology. Impaired LTP (long-term potentiation) at Schaffer collateral CA1 synapses in acute slices ex vivo is observed at five months in these mice and becomes detectable with in vivo recordings beyond six months of age. Moreover, hippocampus-dependent learning deficits in this APP/PS1 mouse model become apparent five to eight months after birth. […]
The analyses of the animals comprises dendritic spine density analysis, LTP recordings, Morris water maze spatial learning and memory testing, contextual fear condition training and memory testing, immunohistological stainings of microgliosis and astrogliosis, biochemical brain-derived neurotrophic factor (BDNF) quantification and downstream TrkB receptor (a high affinity BDNF receptor) signaling, and statistical analysis.

[3] = CD11c+/CD14+ age/AD-associated microglia in the cortex of AD mice; format: in vivo, mouse; conditions: 15-month-old male AD mice; 1.0 mg/kg/2nd day for 1 month; FIG. 8
Description: (§1) The therapeutic effect of fingolimod (FTY720) as an example for an S1PR modulator for use in the treatment of Alzheimer's disease was tested in an established double transgenic amyloid precursor protein/presenilin-1 (APP/PS1) Alzheimer's disease (AD) mouse model that starts to develop amyloid-β (Aβ) pathology in the neocortex and hippocampus at two and four months of age, respectively. This AD mouse model is particularly close to human AD pathology. Impaired LTP (long-term potentiation) at Schaffer collateral CA1 synapses in acute slices ex vivo is observed at five months in these mice and becomes detectable with in vivo recordings beyond six months of age. Moreover, hippocampus-dependent learning deficits in this APP/PS1 mouse model become apparent five to eight months after birth.
(§2) Male APP/PS1 mice and littermate controls (wild-type healthy mice) were treated with intraperitoneal (i.p.) injections of fingolimod (FTY720; dissolved in 3% DMSO, 1.0 mg/kg or 3.0 mg/kg body weight) every second day for 1 to 2 months.
(§3) Substance A: Control, Substance B: FTY720 (1.0 mg/kg/2nd day) for 1 month.

[4] = tested on: CD11c+/CD14+ age/AD-associated microglia; assay: as above; format: in vivo, mouse; conditions: 15-month-old male AD mice; 1.0 mg/kg/2nd day for 1 month; FIG. 9
Description: as §1, §2, §3

SMILES | spine deficits in CA1 pyramidal neurons ([1]; aged (16-month-old) male AD mice, 1 mg/kg via drinking water for 1 month, starting at 15 months, FIG. 7) | spine deficits in CA1 pyramidal neurons ([1]; 6-7-month-old male AD mice, low dose 0.2 mg/kg/2nd day for 1 month, FIG. 6) | spine deficits in CA3 pyramidal neurons and dentate gyrus granule cells ([1]; 1.0 mg/kg/2nd day for 1 month, near and distant to plaques, FIG. 4, 1 mg/kg) | spine deficits in CA3 pyramidal neurons and dentate gyrus granule cells ([1]; 1.0 mg/kg/2nd day for 1 month, near and distant to plaques, FIG. 4, listed as FTY, 1 mg/kg) | spine deficits in CA3 pyramidal neurons and dentate gyrus granule cells ([1]; 3.0 mg/kg/2nd day for 1 month, FIG. 5) | number of synaptic spines versus same-aged healthy mice (wild-type littermates) ([1]; AD mice at 6-7 months and 15-16 months, short-term treatment) | spine deficits in dendrites close to plaques ([1]; APP/PS1 mice, CA1 secondary apical dendrites <50 μm from nearest plaque, FIGS. 1 and 2) | spine deficits in dendrites distant to plaques ([1]; APP/PS1 mice, CA1 secondary apical dendrites >50 μm from closest plaque, FIGS. 1 and 2) | spine deficits in CA1 pyramidal neurons ([1]; male 15-month-old AD model mice, FIG. 1) | deficit in contextual fear learning [2] | increased frequency of CD11c+/CD14+ age/AD-associated microglia in the cortex [3] | increased number of CD11c+/CD14+ age/AD-associated microglia in the cortex [4]
CC(C)Oc1ccc(-c2nc(-c3cccc4c3CC[C@@H]4NCCO)no2)cc1C#N [Ozanimod] | very similar capacity to restore spine deficits |  |  |  |  |  |  |  |  |  |  | 
CCCCCCCCc1ccc(CCC(N)(CO)CO)cc1 [Fingolimod] |  | restored spine deficits | restored spine deficits | completely rescued spine decrease near and distant to AB plaques | restored spine deficits | restored at both ages (6-7 months and 15-16 months) to the level of same-aged healthy mice | significant amelioration of spine deficits | complete rescue of spine deficits | restored spine deficits | restored the deficit | reduces the increased frequency | reduces the increased number
